Data published in US9309514B2, “G protein-coupled purinergic receptor Gpr17 mediates orexigenic effects of FoxO1 in AgRP neurons” (THE TRUSTEES OF COLUMBIA UNIVERSITY IN THE CITY OF NEW YORK, priority 2012, dated 2016).

What was measured:
[1] = tested on: mice; experiment: Food intake after ICV (3rd ventricle) injection; assay type: in vivo
Source text: ELISA for leptin, insulin, and glucagon measurements (Millipore), and colorimetric assays for plasma free fatty acids and glycerol (Wako) were used.
The effect of delivering cangrelor into the 3rd ventricle of mice on food intake was studied.

[2] = tested on: mice; experiment: Glucose tolerance test / blood glucose after Gpr17 agonist administration; assay type: in vivo; details: 6 hr fast, test 20 minutes after administration (FIG. 12C)
Protocol: FIG. 12A-12D. […] (A) Satiated mice were injected with saline or Gpr17 agonist LTD4 (n=5-7). Food intake was monitored for the following time course. (B) Locomotor activity counts of satiated mice during daytime within 1.5 hours following administration of Gpr17 agonist LTD4 (n=6). (C) After fasting for 6 hrs, saline or LTD4 were administered to the mice (n=6-7). Glucose tolerance test was performed 20 minutes after the administration. […] Glucose was measured before or 20 minutes after the administration.

[3] = tested on: AgRP neurons; experiment: Immunohistochemistry of pSTAT3, pS6 and pAkt in AgRP or POMC neurons after delivery into the 3rd ventricle
Protocol: Stereotactic manipulations in 3-4 month-old C57BL/6 mice were performed. Cannulae were placed and allowed 1 week for recovery (−1.8 mm anterior and 0 mm lateral to bregma and 5.3 mm below the skull surface). Correct positioning of the cannulae was verified by monitoring drinking activity after angiotensin injection. […] For immunohistochemistry studies, mice 4-5 hr were perfused after refeeding.
To test whether Gpr17 function affects ARH hormonal signaling in vivo, cangrelor was delivered directly into the 3rd ventricle of mice after an overnight fast and the co-localization of pSTAT3, pS6, and pAkt was determined in either POMC or AgRP neurons, identified by fluorescent reporter, after refeeding.

[4] = tested on: AgRP neurons; experiment: Patch-clamp electrophysiology of fluorescently labeled AgRP neurons in brain slices; assay type: cell-based, mice
Protocol: 300-μm coronal ARH slices were prepared from 6- to 8-week-old mice using ice cold sucrose-based cutting solution (adjusted to pH 7.3) containing (in mM): 10 NaCl, 25 NaHCO3, 195 sucrose, 5 glucose, 2.5 KCl, 1.25 NaH2PO4, 2 Na pyruvate, 0.5 CaCl2, and 7 MgCl2 bubbled continuously with 95% O2 and 5% CO2. Slices were allowed to recover at least 45 minutes at room temperature in recording solution (adjusted to pH 7.3) containing (in mM): 125 NaCl, 5 glucose, 25 NaHCO3, 2.5 KCl, 1.25 NaH2PO4, 2 CaCl2, and 1 MgCl2 bubbled continuously with 95% O2 and 5% CO2 before transferring them to a perfusion chamber for recording. Patch pipettes were pulled to resistances of 7-9 MΩ and filled them with solution (adjusted to pH 7.3) containing 128 K gluconate, 10 KCl, 10 HEPES, 0.1 EGTA, 2 MgCl2, 0.3 Na-GTP, and 3 Mg-ATP. Cells were selected using an upright microscope fitted with fluorescence optics (Nikon) and patched under IR-DIC optics. Electrical access was assessed in the whole-cell recording mode using a small-voltage step-pulse before and at the end of the current clamp recordings. Recordings were discarded in which the series resistance had been >15 MΩ. Current clamp recordings were acquired with no current injection using a MultiClamp 700B amplifier and Clampex data acquisition software (Axon Instruments). Action potential (AP) firing frequency, membrane potential, and AP amplitude using MiniAnalysis (Synaptosoft) were recorded at room temperature and analyzed. Electrophysiological recording to measure mEPSC and mIPSC in brain slices was performed as previously described (Pinto et al., 2004).
The electrophysiological properties of AgRP neurons identified using fluorescent reporters in brain slices from wild-type and Agrp-Foxo1^−/− mice (FIG. 5D-F) were studied. […] Furthermore, insulin suppressed the firing frequency of wild-type cells to ˜35% of basal level, a nearly three-fold reduction. Despite the lower basal firing frequency, insulin further suppressed the firing frequency of knockout neurons, with a 100-fold reduction. Insulin caused a similar reduction in membrane potential in wild-type and knockout cells (˜−20 mV).
Given the favorable metabolic profile of Agrp-Foxo1^−/− mice, experiments were designed to identify FoxO1 targets that mediate its effects and are readily targetable by chemical means. […] Next, Gpr17 regulation in ARH punch biopsies from fasted and refed mice was examined. […] To investigate the function of Gpr17 in AgRP neurons, the electrophysiological properties of fluorescently labeled AgRP neurons in response to the Gpr17 antagonist, cangrelor were tested. […] Therefore, inhibition of Gpr17 can affect the electrical activity of AgRP neurons in an insulin-mimetic fashion, supporting our hypothesis.

[5] = tested on: Neuro2A (N2A) cells; experiment: Insulin signaling (pAkt western blot) in wild type N2A cells treated with or without cangrelor; assay type: cell-based; details: serum starved overnight, stimulated with insulin
Protocol: FIG. 14. Neuro2A (N2A) cells are a suitable model for studying the molecular mechanisms of Gpr17 signaling. Wild type N2A cells (treated with or without cangrelor) were serum starved overnight and stimulated with insulin. Insulin signaling activity was gauged by measuring pAkt by western blot. N2A cells express minimal endogenous Gpr17.
More experiments were conducted to study the in vivo regulation of Gpr17 expression by FoxO1. It was discovered that Knocking out FoxO using Synapsin-Cre in mediobasal hypothalamus (MBH) caused a concomitant reduction of Gpr17, further showing that Gpr17 is the endogenous target of FoxO. FIG. 13, panel A. Moreover, Gpr17 expression was elevated in the hippocampus of insulin resistant diabetic GIRKO mice. FIG. 13, panel B. Further studies of Gpr17 expression showing that it contributes to the causality of diabetes, were conducted using Neuro2A (N2A) cells that express minimal endogenous Gpr17. Wild type N2A cells (treated with or without cangrelor) were serum starved overnight and then stimulated with insulin. Insulin signaling activity was gauged by measuring pAkt by western blot. […] FIG. 14.

[6] = in vivo; cited from earlier work
[7] = tested on: platelet; details: 4 μg/kg per minute IV, in approximately 70% of patients after 15 min; cited from earlier work
[8] = tested on: mouse Gpr17; experiment: siRNA knockdown of Gpr17 in Gpr17-mCherry stable line (diminished mCherry signal); assay type: cell-based; details: Gpr17-mCherry stable line transfected with RNAi construct
Source text: Seven siRNA sequences were designed based on the gene sequence of mouse Gpr17. DNA oligomers were ligated into a MSCV-P2Gm vector and verified by sequencing. The correct clones were used for further evaluation of the effectiveness of each RNAi construct. Gpr17-mCherry-stable line was transfected with each of the seven constructs. The effectiveness of RNAi was scored by the diminished mCherry signal in cells. […] The resultant adenovirus expresses RNAi upon Cre-dependent recombination. Seven oligomer sequences to generate Gpr17 RNAi. The 7 oligomers were ligated into the vector (MSCV-P2Gm) to generate RNAi specific for Gpr17 gene. The sequences are provided as following. The common adaptor sequence is provided, and the targeting siRNA (specific for mouse Gpr17) sequence is highlighted with underline.
In another series of experiments, siRNA sequences that knock down Gpr17 were identified. Seven candidate siRNA sequences conjugated to Gfp (green) and directed against mouse Gpr17 were cloned into a vector and their ability to inhibit Gpr17 expression was determined in Gpr17-mCherry stable line by their effectiveness in diminishing red fluorescence. Seven candidate sequences against mouse Gpr17 were cloned into vector. The resultant adenovirus expresses RNAi upon Cre-dependent recombination. Various degrees of knockdown of Gpr17 were achieved using siRNA.

[9] = delivered into 3rd ventricle after overnight fast, determined after refeeding
[10] = cangrelor treatment (90 nM), same neurons before and after
[11] = 3rd ventricle, overnight fast, refeeding, in a subset of AgRP neurons
[12] = insulin, wild-type AgRP neurons

In the case of CCCCC/C=C\C\C=C/C=C/C=C/[C@@H](SC[C@H](N)C(=O)NCC(=O)O)[C@@H](O)CCCC(=O)O [LTD4], the food intake ([1]; satiated mice injected with saline or LTD4 (FIG. 12A)) is reported as “increases food intake”, the “glucose tolerance test / neuronal regulation of glucose homeostasis” value [2] is reported as “impairs neuronal regulation of glucose homeostasis” and the “pSTAT3 content in AgRP neurons” value [3, 9] is reported as “decreased”.

For CSCCNc1nc(SCCC(F)(F)F)nc2c1ncn2[C@@H]1O[C@H](COP(=O)(O)OP(=O)(O)C(Cl)(Cl)P(=O)(O)O)[C@@H](O)[C@H]1O [cangrelor, [dichloro-[[[(2R,3S,4R,5R)-3,4-dihydroxy-5-[6-(2-methylsulfanylethylamino)-2-(3,3,3-trifluoropropylsulfanyl)purin-9-yl]oxolan-2-yl]methoxy-hydroxyphosphoryl]oxy-hydroxyphosphoryl]methyl]phosphonic acid], the “firing frequency of AgRP neurons” value [4, 10] was “significantly reduced”, the “membrane potential of AgRP neurons” value [4, 10] was “lower” and the “food intake during refeeding” value ([1]; Agrp-Foxo1−/− mice, overnight fast, cangrelor into 3rd ventricle) was “completely unaffected”. For the same molecule, the “insulin signaling (pAkt by western blot)” value [5] was “minimal effect”, the plasma half-life [6] was “three to six” and the platelet inhibition [7] was 100%. For the same molecule, the “pAkt and pS6 in POMC neurons” value ([3]; 3rd ventricle, overnight fast, refeeding) was “without effecting detectable changes”, the “pAkt in AgRP neurons” value [3, 11] was “increased” and the “pS6 in AgRP neurons” value [3, 11] was “increased”. The “pSTAT3 content in AgRP neurons” value [3, 9] was “specifically and dramatically increased” and the “pSTAT3 content in POMC neurons” value [3, 9] was “not in POMC neurons”.

For “insulin: anorexigenic hormone applied to AgRP neurons in brain slices”, the “fold reduction of firing frequency” value ([4]; insulin, Agrp-Foxo1−/− (knockout) AgRP neurons) was 100 fold, the “firing frequency relative to basal level” value [4, 12] was ~35 % of basal level and the “fold reduction of firing frequency” value [4, 12] was “three”. For the same molecule, the “reduction in membrane potential” value ([4]; insulin, wild-type and knockout cells) was ~−20 mV.

B1: SEQ ID NO. 6: oligomer ligated into MSCV-P2Gm vector to generate RNAi specific for mouse Gpr17 (nucleic acid)
DNA: TGCTGTTGACAGTGAGCGATGGCTTCCTCTTCTATCTGAATAGTGAAGCCACAGATGTATTCAGATAGAAGAGGAAGCCAGTGCCTACTGCCTCGGA
For B1, the “effectiveness in knocking down Gpr17 expression (diminishing red fluorescence)” value (from here on “effectiveness”) [8] was “most effective”.

B2: SEQ ID NO. 7: oligomer ligated into MSCV-P2Gm vector to generate RNAi specific for mouse Gpr17 (nucleic acid)
DNA: TGCTGTTGACAGTGAGCGCCCGGATCACCTCCTGCCTCACTAGTGAAGCCACAGATGTAGTGAGGCAGGAGGTGATCCGGTTGCCTACTGCCTCGGA
In the case of B2, the “effectiveness” value [8] is reported as “most effective”.

B3: SEQ ID NO. 9: oligomer ligated into MSCV-P2Gm vector to generate RNAi specific for mouse Gpr17 (nucleic acid)
DNA: TGCTGTTGACAGTGAGCGAAACTGTACCGGGAGAAGGCCTTAGTGAAGCCACAGATGTAAGGCCTTC
With B3 the “effectiveness” value [8] was “most effective”.
